Assay results as given in US12421229B2, “Hydropyrido[1,2-α]pyrazine compounds for the treatment of autoimmune disease” (Hoffmann-La Roche Inc., priority 2019, dated 2025).

The compounds below were run against T1, human TLR7 (Homo sapiens, UniProt Q9NYK1) (assay: HEK293-Blue-hTLR-7 cells assay). Details: HEK293-Blue-hTLR7 cells, R848 stimulation, 20 hrs, SEAP reporter; read-out: HEK/hTLR7 IC50.
T1 construct: host or cells: HEK293 (HEK-Blue hTLR7)
T1 sequence (Q9NYK1 27-1049): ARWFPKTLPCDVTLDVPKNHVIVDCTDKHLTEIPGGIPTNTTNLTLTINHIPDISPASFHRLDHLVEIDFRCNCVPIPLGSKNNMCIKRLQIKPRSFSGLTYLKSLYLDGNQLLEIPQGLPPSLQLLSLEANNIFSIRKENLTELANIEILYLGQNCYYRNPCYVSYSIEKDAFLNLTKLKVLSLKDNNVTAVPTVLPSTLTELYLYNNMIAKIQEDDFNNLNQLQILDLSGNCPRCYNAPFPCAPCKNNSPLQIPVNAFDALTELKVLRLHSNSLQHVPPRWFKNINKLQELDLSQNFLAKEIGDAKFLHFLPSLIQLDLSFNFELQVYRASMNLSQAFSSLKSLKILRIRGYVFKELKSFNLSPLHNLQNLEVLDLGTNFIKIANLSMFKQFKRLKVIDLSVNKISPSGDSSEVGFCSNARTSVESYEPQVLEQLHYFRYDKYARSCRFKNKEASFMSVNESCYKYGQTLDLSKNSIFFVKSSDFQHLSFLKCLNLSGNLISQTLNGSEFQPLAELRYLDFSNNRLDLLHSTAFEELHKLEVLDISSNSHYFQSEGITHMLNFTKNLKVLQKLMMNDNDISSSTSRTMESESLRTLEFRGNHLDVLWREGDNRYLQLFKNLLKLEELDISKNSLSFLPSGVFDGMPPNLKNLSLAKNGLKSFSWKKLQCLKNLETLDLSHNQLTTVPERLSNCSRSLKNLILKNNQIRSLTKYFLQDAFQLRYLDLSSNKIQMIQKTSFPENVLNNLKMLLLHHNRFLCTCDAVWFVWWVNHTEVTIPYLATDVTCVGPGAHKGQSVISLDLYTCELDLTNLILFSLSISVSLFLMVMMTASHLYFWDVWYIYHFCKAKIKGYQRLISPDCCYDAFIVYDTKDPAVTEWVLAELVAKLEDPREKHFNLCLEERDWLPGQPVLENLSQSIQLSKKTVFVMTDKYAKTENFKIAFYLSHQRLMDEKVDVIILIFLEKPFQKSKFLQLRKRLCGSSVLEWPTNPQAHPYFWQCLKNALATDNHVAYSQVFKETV
Assay type: cell-based
Source text: A stable HEK293-Blue-hTLR-7 cell line was purchased from InvivoGen (Cat. #: hkb-htlr7, San Diego, California, USA). These cells were originally designed for studying the stimulation of human TLR7 by monitoring the activation of NF-κB. A SEAP (secreted embryonic alkaline phosphatase) reporter gene was placed under the control of the IFN-β minimal promoter fused to five NF-κB and AP-1-binding sites. The SEAP was induced by activating NF-κB and AP-1 via stimulating HEK-Blue hTLR7 cells with TLR7 ligands. Therefore the reporter expression was declined by TLR7 antagonist under the stimulation of a ligand, such as R848 (Resiquimod), for incubation of 20 hrs. The cell culture supernatant SEAP reporter activity was determined using QUANTI-Blue™ kit (Cat. #: rep-qb1, Invivogen, San Diego, Ca, USA) at a wavelength of 640 nm, a detection medium that turns purple or blue in the presence of alkaline phosphatase.
HEK293-Blue-hTLR7 cells were incubated at a density of 250,000˜450,000 cells/mL in a volume of 170 μL in a 96-well plate in Dulbecco's Modified Eagle's medium (DMEM) containing 4.5 g/L glucose, 50 U/mL penicillin, […], […], 2 mM L-glutamine, 10% (v/v) heat-inactivated fetal bovine serum with addition of 20 μL test compound in a serial dilution in the presence of final DMSO at 1% and 10 μL of 20 uM R848 in above DMEM, perform incubation under 37° C. in a CO2 incubator for 20 hrs. Then 20 μL of the supernatant from each well was incubated with 180 μL Quanti-blue substrate solution at 37° C. for 2 hrs and the absorbance was read at 620˜655 nm using a spectrophotometer. The signaling pathway that TLR7 activation leads to downstream NF-κB activation has been widely accepted, and therefore similar reporter assay was modified for evaluating TLR7 antagonist.

| SMILES | IC50 [nM] |
| --- | --- |
| C[C@@H]1CN(c2ccc(C#N)c3ncccc23)C[C@@H]2C[C@H](NCc3ccc(N4CCNCC4)cc3)CCN21 [Example 1, 5-[(4R,8R,9aS)-4-methyl-8-[(4-piperazin-1-ylphenyl)methylamino]-1,3,4,6,7,8,9,9a-octahydropyrido[1,2-a]pyrazin-2-yl]quinoline-8-carbonitrile] | 33 |
| CO[C@H]1CN(c2ccc([C@@H]3CCN4[C@@H](C3)CN(c3ccc(C#N)c5ncccc35)C[C@H]4C)cn2)C[C@@H]1N [Example 6, 5-[(4R,8R,9aS)-8-[6-[(3S,4S)-3-amino-4-methoxy-pyrrolidin-1-yl]-3-pyridyl]-4-methyl-1,3,4,6,7,8,9,9a-octahydropyrido[1,2-a]pyrazin-2-yl]quinoline-8-carbonitrile] | 41 |
| C[C@@H]1CN(c2ccc(C#N)c3ncccc23)C[C@@H]2C[C@H](c3ccc(N4CC(N)C4)nc3)CCN21 [Example 7, 5-[(4R,8R,9aS)-8-[6-(3-aminoazetidin-1-yl)-3-pyridyl]-4-methyl-1,3,4,6,7,8,9,9a-octahydropyrido[1,2-a]pyrazin-2-yl]quinoline-8-carbonitrile] | 32 |
| C[C@@H]1CN(c2ccc(C#N)c3ncccc23)C[C@@H]2C[C@H](N3CC(c4ccc(N5CCNCC5)cc4)C3)CCN21 [Example 9, 5-[(4R,8R,9aS)-4-methyl-8-[3-(4-piperazin-1-ylphenyl)azetidin-1-yl]-1,3,4,6,7,8,9,9a-octahydropyrido[1,2-a]pyrazin-2-yl]quinoline-8-carbonitrile] | 27 |
| C[C@@H]1CN(c2ccc(C#N)c3ncccc23)C[C@@H]2C[C@@H](Oc3ccc(N4CCNCC4)cn3)CCN21 [Example 11, 5-[(4R,8S,9aS)-4-methyl-8-[(5-piperazin-1-yl-2-pyridyl)oxy]-1,3,4,6,7,8,9,9a-octahydropyrido[1,2-a]pyrazin-2-yl]quinoline-8-carbonitrile] | 46 |
| CO[C@@H]1CN(c2ccc([C@@H]3CCN4[C@@H](C3)CN(c3ccc(C#N)c5ncccc35)C[C@H]4C)cn2)C[C@@H]1N [Example 13, 5-[(4R,8R,9aS)-8-[6-[(3S,4R)-3-amino-4-methoxy-pyrrolidin-1-yl]-3-pyridyl]-4-methyl-1,3,4,6,7,8,9,9a-octahydropyrido[1,2-a]pyrazin-2-yl]quinoline-8-carbonitrile] | 21 |
| CO[C@@H]1CN(c2ccc([C@@H]3CCN4[C@@H](C3)CN(c3ccc(C#N)c5ncccc35)C[C@H]4C)cn2)C[C@H]1N [Example 14, 5-[(4R,8R,9aS)-8-[6-[(3R,4R)-3-amino-4-methoxy-pyrrolidin-1-yl]-3-pyridyl]-4-methyl-1,3,4,6,7,8,9,9a-octahydropyrido[1,2-a]pyrazin-2-yl]quinoline-8-carbonitrile] | 23 |
| C[C@@H]1CN(c2ccc(C#N)c3ncccc23)C[C@H]2C[C@H](c3ccc(N4CCNCC4)nc3)CCN21 [Example 15, 5-[(4R,8R,9aR)-4-methyl-8-(6-piperazin-1-yl-3-pyridyl)-1,3,4,6,7,8,9,9a-octahydropyrido[1,2-a]pyrazin-2-yl]quinoline-8-carbonitrile] | 24 |
| C[C@@H]1CN(c2ccc(C#N)c3ncccc23)C[C@@H]2C[C@@H](Oc3ccc(N4CCNCC4)nc3)CCN21 [Example 16, 5-[(4R,8S,9aS)-4-methyl-8-[(6-piperazin-1-yl-3-pyridyl)oxy]-1,3,4,6,7,8,9,9a-octahydropyrido[1,2-a]pyrazin-2-yl]quinoline-8-carbonitrile] | 35 |
| C[C@@H]1CN(c2ccc(C#N)c3ncccc23)C[C@@H]2C[C@@H](NCc3ccc(N4CCNCC4)cc3)CCN21 [Example 17, 5-[(4R,8S,9aS)-4-methyl-8-[(4-piperazin-1-ylphenyl)methylamino]-1,3,4,6,7,8,9,9a-octahydropyrido[1,2-a]pyrazin-2-yl]quinoline-8-carbonitrile] | 35 |
| C[C@@H]1CN(c2ccc(C#N)c3ncccc23)C[C@@H]2C[C@@H](Oc3cnc(N4CCNCC4)nc3)CCN21 [Example 18, 5-[(4R,8S,9aS)-4-methyl-8-(2-piperazin-1-ylpyrimidin-5-yl)oxy-1,3,4,6,7,8,9,9a-octahydropyrido[1,2-a]pyrazin-2-yl]quinoline-8-carbonitrile] | 21 |
| C[C@@H]1CN(c2ccc(C#N)c3ncccc23)C[C@@H]2C[C@H](Nc3ccc(C[C@@H]4CNCCO4)cc3)CCN21 [Example 21, 5-[(4R,8R,9aS)-4-methyl-8-[4-[[(2R)-morpholin-2-yl]methyl]anilino]-1,3,4,6,7,8,9,9a-octahydropyrido[1,2-a]pyrazin-2-yl]quinoline-8-carbonitrile] | 20 |

Stronger by IC50, values ahead:

| IC50 [nM] | SMILES |
| --- | --- |
| 4 | C[C@@H]1CN(c2ccc(C#N)c3ncccc23)C[C@@H]2C[C@H](c3ccc(N4CCNCC4)nc3)CCN21 (stereo in doubt) [Example 2, 5-[(4R,8R)-4-methyl-8-(6-piperazin-1-yl-3-pyridyl)-1,3,4,6,7,8,9,9a-octahydropyrido[1,2-a]pyrazin-2-yl]quinoline-8-carbonitrile] |
| 8 | C[C@@H]1CN(c2ccc(C#N)c3ncccc23)C[C@@H]2CC(c3ccc(C[C@@H]4CNCCO4)cc3)CCN21 (stereo in doubt) [Example 25, 5-[(4R,8R,9aS)-4-methyl-8-[4-[[(2R)-morpholin-2-yl]methyl]phenyl]-1,3,4,6,7,8,9,9a-octahydropyrido[1,2-a]pyrazin-2-yl]quinoline-8-carbonitrile] |
| 10 | C[C@@H]1CN(c2ccc(C#N)c3ncccc23)CC2C[C@H](c3ccc(N4CCNCC4)cc3)CCN21 (stereo partly drawn) [Example 3, 5-[(4R,8R)-4-methyl-8-(4-piperazin-1-ylphenyl)-1,3,4,6,7,8,9,9a-octahydropyrido[1,2-a]pyrazin-2-yl]quinoline-8-carbonitrile] |
| 6 | C[C@@H]1CN(c2ccc(C#N)c3ncccc23)C[C@@H]2C[C@H](c3ccc(N4CCNCC4)nc3)CCN21 [Example 4, 5-[(4R,8R,9aS)-4-methyl-8-(6-piperazin-1-yl-3-pyridyl)-1,3,4,6,7,8,9,9a-octahydropyrido[1,2-a]pyrazin-2-yl]quinoline-8-carbonitrile] |
| 17 | CO[C@H]1CN(c2ccc([C@@H]3CCN4[C@@H](C3)CN(c3ccc(C#N)c5ncccc35)C[C@H]4C)cn2)C[C@H]1N [Example 12, 5-[(4R,8R,9aS)-8-[6-[(3R,4S)-3-amino-4-methoxy-pyrrolidin-1-yl]-3-pyridyl]-4-methyl-1,3,4,6,7,8,9,9a-octahydropyrido[1,2-a]pyrazin-2-yl]quinoline-8-carbonitrile] |
| 15 | C[C@@H]1CN(c2ccc(C#N)c3ncccc23)C[C@@H]2C[C@H](c3ccc(N4C[C@@H](N)[C@@H](F)C4)nc3)CCN21 [Example 19, 5-[(4R,8R,9aS)-8-[6-[(3R,4S)-3-amino-4-fluoro-pyrrolidin-1-yl]-3-pyridyl]-4-methyl-1,3,4,6,7,8,9,9a-octahydropyrido[1,2-a]pyrazin-2-yl]quinoline-8-carbonitrile] |
| 13 | C[C@@H]1CN(c2ccc(C#N)c3ncccc23)C[C@@H]2C[C@H](Nc3ccc([C@H]4CNCCO4)cc3)CCN21 [Example 20, 5-[(4R,8R,9aS)-4-methyl-8-[4-[(2S)-morpholin-2-yl]anilino]-1,3,4,6,7,8,9,9a-octahydropyrido[1,2-a]pyrazin-2-yl]quinoline-8-carbonitrile] |
